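Following 48 hours of exposure in 96-well plates, responses at five concentrations were used to interpolate endpoints linearly. GI50 marks 50% less growth. TGI: concentration producing complete growth inhibition.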

Consider ten molecules from PubChem BioAssay (NCI).

What all share (assay): DTP human tumour cell line panel, 48 h
Assay [1] deals with OVCAR-3 ovarian.
The test system of assay [2] is UACC-257 melanoma.
Assay [3] relates to IGROV1 ovarian.
In assay [4] the test system is COLO 205 colon.
Assay [5] concerns MALME-3M melanoma.
For assay [6], the system named is RXF 393 renal.
Assay [7] deals with NCI-H522 lung.
The subject of assay [8] is LOX IMVI melanoma.
Assay [9] deals with M14 melanoma.
The subject of assay [10] is SN12C renal.
The test system of assay [11] is SR leukemia.
Assay [12] concerns SF-268 CNS.
Assay [13] concerns MDA-MB-231 breast.
Assay [14] has as its system PC-3 prostate.
The test system of assay [15] is MCF7 breast.
In assay [16] the test system is HS 578T breast.

Usually TGI stands for the concentration giving total growth inhibition. For `Cc1nc(Nc2ccc([N+](=O)[O-])cc2)sc1C(/C=C/c1ccc(N(C)C)cc1)=N/NC(=O)c1ccccc1`, the TGI in assay [1], in assay [2], in [3], in assay [4], in [5] and in assay [6] was greater than 100 µM in each case. For the same molecule, the TGI in [7], in assay [8], in assay [9], in assay [10], in assay [11] and in [12] was greater than 100 µM throughout.

Turning to `CN(C)C(=O)Oc1ccc(-c2cn3cc(NC(=O)c4ccccc4)ccc3n2)cc1`, the TGI in assay [13] is greater than 100 µM; in [1] it was greater than 100 µM; in [2], greater than 100 µM; in assay [3], greater than 100 µM; in assay [4], 32 µM; in assay [14], greater than 100 µM. Further, the TGI in assay [6], in assay [7], in assay [8], in assay [9], in [10] and in assay [11] was greater than 100 µM each time. Also, the TGI in [12] and in [15] was greater than 100 µM throughout.

By GI50 is commonly meant the concentration at which growth is held to half of that of the control. Take `O=C(O)CCCOc1cc(-c2ccccc2F)nc2cc3c(cc12)OCO3`: the TGI in [13] is greater than 100 µM; in assay [1] it was 6.74 µM; in assay [3] it was 15.8 µM; in [4] it was 27.4 µM; in [14], greater than 100 µM; in assay [5], greater than 100 µM. Also, the TGI in [6], in assay [8], in assay [9], in assay [10], in [11] and in assay [12] was greater than 100 µM throughout. This molecule also registered a TGI in assay [15] greater than 100 µM. For the same molecule, the GI50 in assay [1] was 2.35 µM; in assay [6], 7.68 µM; in assay [12], 16.3 µM.

As to `Cc1ccsc1/C=N/Nc1nncc2ccccc12`, the TGI in [13], in assay [1], in [2], in assay [3], in assay [4] and in assay [14] was greater than 100 µM in each case. For the same molecule, the TGI in [6], in assay [8], in [9], in assay [10], in [16] and in [12] was greater than 100 µM throughout. In [15], this molecule yielded a TGI greater than 100 µM.

For the molecule `N#CC(Cc1ccccc1Br)N(CCC1=CCCCC1)C(c1ccccc1)c1ccccc1` (stereo unspecified), the TGI in [13], in assay [1], in assay [2], in [3], in assay [4] and in assay [14] was greater than 100 µM in each case. For the same molecule, the TGI was greater than 100 µM in [5]; greater than 100 µM in assay [6]; 87 µM in [7]; greater than 100 µM in assay [9]; greater than 100 µM in [16]; greater than 100 µM in [12]. The molecule also returned a TGI in assay [15] greater than 100 µM.

`O=C(NO)C(=O)Nc1ccc(Cl)cc1[N+](=O)[O-]`: the TGI in [1], in assay [2], in assay [3], in assay [4], in [5] and in assay [6] was greater than 100 µM throughout. Besides, the TGI in assay [7], in [8], in assay [9], in [10], in [11] and in assay [12] was greater than 100 µM in each case.

Take `Nc1nc(Cl)c2nnn(CC3CCC(CO)C3)c2n1` (stereo unspecified): the TGI in assay [13], in assay [1], in assay [2], in assay [4], in assay [14] and in assay [6] was greater than 100 µM each time. For the same molecule, the TGI in assay [8], in assay [9], in [10], in assay [16], in assay [12] and in assay [15] was greater than 100 µM each time.

Take `Cn1c2cc(O)cc(O)c2c(=O)c2c([N+](=O)[O-])cccc21`: the TGI in assay [1], in [2], in assay [3], in assay [4], in assay [5] and in assay [6] was greater than 100 µM in each case. In addition, the TGI in assay [7], in assay [8], in assay [9], in [10], in assay [11] and in assay [12] was greater than 100 µM throughout.

Regarding `CCOC(=O)c1cnc(-n2[nH]c3c(c2=O)CCCC3)[nH]c1=O`, the TGI in [13], in assay [2], in [3], in assay [4], in assay [14] and in [5] was greater than 100 µM each time. The TGI in assay [7], in [9], in assay [10], in [16], in [11] and in [12] was greater than 100 µM each time.

Take `COC(=O)c1ccccc1/C=C1\Cc2cc(C)c(C)cc2C1=O`: the TGI in assay [1], in assay [2], in assay [3], in [4], in assay [14] and in [5] was greater than 100 µM in each case. For the same molecule, the TGI in assay [6], in assay [7], in assay [8], in [9], in [10] and in assay [16] was greater than 100 µM in each case. Moreover, the TGI in assay [11], in assay [12] and in [15] was greater than 100 µM throughout.
